Data reported in ChEMBL document CHEMBL1143560, “Discovery of bicycloalkyl urea melanin concentrating hormone receptor antagonists: orally efficacious antiobesity therapeutics” (J Med Chem, 2005).
One block for each compound: values may come before it.

Tests used:
[1] = test system: Rattus norvegicus; assay: Suppression of Melanin concentrating hormone receptor-stimulated food intake in lean rats after 30 mg/kg dose; type: functional
[2] = biological target: T1, Melanin-concentrating hormone receptor 1 (Homo sapiens, UniProt Q99705); assay: Inhibition constant for human Melanin concentrating hormone receptor 1
T1 sequence (Q99705 whole entry): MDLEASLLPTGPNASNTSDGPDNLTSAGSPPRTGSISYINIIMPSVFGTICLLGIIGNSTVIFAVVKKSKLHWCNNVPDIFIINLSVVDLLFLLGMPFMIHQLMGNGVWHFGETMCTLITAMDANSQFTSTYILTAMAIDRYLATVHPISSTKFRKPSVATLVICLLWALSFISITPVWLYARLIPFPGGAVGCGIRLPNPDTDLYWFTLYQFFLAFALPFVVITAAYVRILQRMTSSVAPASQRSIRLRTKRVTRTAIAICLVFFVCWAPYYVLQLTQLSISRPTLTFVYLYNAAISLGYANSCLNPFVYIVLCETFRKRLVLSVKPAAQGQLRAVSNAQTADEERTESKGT

[3] = biological target: Melanin-concentrating hormone receptor 2 (Homo sapiens, UniProt Q969V1); assay: Inhibition constant for human Melanin concentrating hormone receptor 2
Melanin-concentrating hormone receptor 2, sequence (Q969V1 whole entry): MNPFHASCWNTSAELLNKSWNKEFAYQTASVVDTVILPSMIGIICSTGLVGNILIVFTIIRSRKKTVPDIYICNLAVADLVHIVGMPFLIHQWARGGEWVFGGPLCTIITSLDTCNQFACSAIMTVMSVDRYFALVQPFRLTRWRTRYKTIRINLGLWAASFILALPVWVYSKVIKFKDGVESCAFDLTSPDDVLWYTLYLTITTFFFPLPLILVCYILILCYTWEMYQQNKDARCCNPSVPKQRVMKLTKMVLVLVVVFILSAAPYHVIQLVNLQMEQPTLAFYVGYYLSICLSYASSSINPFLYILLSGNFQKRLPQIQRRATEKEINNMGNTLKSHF

[4] = biological target: T1, Melanin-concentrating hormone receptor 1; assay: Inhibition of [Ca2+] influx mediated by human Melanin concentrating hormone receptor 1 expressing cells; type: functional
[5] = test system: Mus musculus; assay: In vivo efficacy of compound for food intake by the mice in 6 hr after peroral administration at 30 mpk expressed as percent of vehicle; type: functional
[6] = test system: Mus musculus; assay: In vivo efficacy of compound for food intake by the mice in 2 h after peroral administration at 30 mpk expressed as percent of vehicle; type: functional
[7] = biological target: Melanin-concentrating hormone receptor 1 (Mus musculus) (UniProt Q8JZL2); assay: Ex vivo inhibition of MCH-ADO binding to Melanin concentrating hormone receptor 1 in mice (n=3) 6 hr after 30 mg/kg peroral dose; type: organism-based; set-up: dose 30 mg/kg; settings: at 30 mg/kg
Melanin-concentrating hormone receptor 1 (Mus musculus), sequence (Q8JZL2 whole entry): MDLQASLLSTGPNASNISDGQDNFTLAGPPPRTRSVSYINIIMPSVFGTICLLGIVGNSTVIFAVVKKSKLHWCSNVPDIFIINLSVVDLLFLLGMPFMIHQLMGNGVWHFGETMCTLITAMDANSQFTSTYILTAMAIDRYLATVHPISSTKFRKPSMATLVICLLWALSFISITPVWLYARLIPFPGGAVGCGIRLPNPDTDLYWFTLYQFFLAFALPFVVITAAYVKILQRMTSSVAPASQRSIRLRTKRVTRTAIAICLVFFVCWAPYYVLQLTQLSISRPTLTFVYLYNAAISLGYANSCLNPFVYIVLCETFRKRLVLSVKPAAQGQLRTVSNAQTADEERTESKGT

[8] = test system: Mus musculus; assay: In vivo efficacy of compound for food intake by the mice in 24 hr after peroral administration at 30 mpk expressed as percent of vehicle; type: functional
[9] = biological target: Melanin-concentrating hormone receptor 1 (Mus musculus, UniProt Q8JZL2); assay: Inhibition constant for mouse Melanin concentrating hormone receptor 1
Melanin-concentrating hormone receptor 1 (Mus musculus, UniProt Q8JZL2), sequence (Q8JZL2 whole entry): as above

[10] = test system: Mus musculus; assay: Reduction in milk consumption by fasted mouse after oral administration
[11] = test system: Rattus norvegicus; assay: Oral efficacy for reduction in body weight of rats after 4 days of administration; Range is 15-20%; type: functional
[12] = biological target: Melanin-concentrating hormone receptor 1 (Mus musculus) (UniProt Q8JZL2); assay: Ex vivo inhibition of MCH-ADO binding to Melanin concentrating hormone receptor 1 in mice (n=3) 24 hr r after 30 mg/kg peroral dose; type: organism-based; set-up: dose 30 mg/kg; settings: at 30 mg/kg
[13] = test system: Rattus norvegicus; assay: Reduction of food intake by rats after 6 hr of administration was measured; type: functional
[14] = Area under concentration time curve (from 0-24 hr) for compound in rats (n= 3) after oral administration at 10 mpk; type: ADME; set-up: dose 10 mpk, time < 24 hr, route oral; settings: rat, in vivo, 10 mg/kg
[15] = Half life of compound in rats (n= 3) after intravenous administration at 10 mpk; type: ADME, organism-based; settings: rat, in vivo, 10 mg/kg
[16] = Steady state volume distribution of compound in rats (n= 3) after oral administration at 10 mpk; type: ADME, organism-based; settings: rat, in vivo, 10 mg/kg
[17] = Clearance of compound in rats (n= 3) after intravenous administration at 10 mpk; type: ADME, organism-based; settings: rat, in vivo, 10 mg/kg
[18] = Bioavailability of compound in rats (n= 3) after oral administration at 10 mpk; type: ADME, organism-based; settings: rat, in vivo, 10 mg/kg

Structure (SMILES): CN(C)CC1CCc2cc(NC(=O)c3ccc(-c4ccc(F)cc4)cc3)ccc2C1 (configuration not stated)
- Suppression [1]: >90%

- Ki [2]: 2.02 µM
- Ki [3]: > 3 µM
Structure (SMILES): N#Cc1cccc([C@H]2CC[C@@H](N(CCN3CC[C@@H](O)C3)C(=O)Nc3ccc(F)c(C(F)(F)F)c3)CC2)c1

- Kb [4]: 0.009 µM
- Ki [2]: 0.003 µM
- Ki [3]: > 3 µM
Structure (SMILES): N#Cc1cccc(C2=CCC(N(CCN3CCCC3)C(=O)Nc3ccc(F)c(Cl)c3)CC2)c1 (configuration not stated)

- Ki [2]: 0.018 µM
- inhibition [7]: 76%
- Ki [3]: > 3 µM
Structure (SMILES): N#Cc1ccc([C@]23CC[C@@H](N(CCN4CCCC4)C(=O)Nc4cc(Cl)cc(Cl)c4)[C@H]2C3)cc1
- Efficacy [5]: 86.6%
- Efficacy [6]: 78.4%
- Efficacy [8]: 94.7%

- Ki [2]: 0.391 µM
- Ki [3]: > 3 µM
Structure (SMILES): C[C@]1(c2cccc(C#N)c2)CC[C@H](N(CCN2CC[C@@H](O)C2)C(=O)Nc2ccc(F)c(C(F)(F)F)c2)CC1

Structure (SMILES): N#Cc1cccc([C@]23CC[C@@H](N(CCN4CC[C@@H](O)C4)C(=O)Nc4ccc(F)c(Cl)c4)CC2C3)c1 (some centres not stated)
- Ki [9]: 0.0107 µM
- Ki [3]: > 3 µM

Structure (SMILES): CC(=O)N(C)C1CCN(c2ccc(NC(=O)N3CCC(c4ccc(Cl)cc4)CC3)cc2)C1 (configuration not stated)
- Reduction [10]: 64%

- Ki [2]: 0.0071 µM
- inhibition [7]: 81%
- Ki [3]: > 3 µM
Structure (SMILES): N#Cc1ccccc1[C@]12CC[C@@H](N(CCN3CC[C@@H](O)C3)C(=O)Nc3ccc(F)c(C(F)(F)F)c3)[C@H]1C2
- Efficacy [5]: 68.2%
- Efficacy [6]: 65.7%
- Efficacy [8]: 80.8%

- Ki [9]: 0.0096 µM
- Kb [4]: 0.002 µM
- Ki [2]: 0.0089 µM
- Ki [3]: > 3 µM
Structure (SMILES): N#Cc1cccc(-c2ccc(N(CCN3CC[C@@H](O)C3)C(=O)Nc3ccc(F)c(C(F)(F)F)c3)cc2)c1

- Ki [2]: > 3 µM
- Ki [3]: > 3 µM
Structure (SMILES): C[C@]1(c2cccc(C#N)c2)CC[C@@H](N(CCN2CC[C@@H](O)C2)C(=O)Nc2ccc(F)c(C(F)(F)F)c2)CC1

- Ki [2]: 0.215 µM
- Ki [3]: > 3 µM
Structure (SMILES): N#Cc1cccc([C@H]2CC[C@H](N(CCN3CC[C@@H](O)C3)C(=O)Nc3ccc(F)c(C(F)(F)F)c3)CC2)c1

Structure (SMILES): CN(C)c1nc(N[C@H]2CC[C@@H](NC(=O)c3ccc(F)c(F)c3)CC2)nc2ccccc12
- Efficacy [11]: 20%

Structure (SMILES): N#Cc1cccc([C@]23CC[C@@H](N(CCN4CC[C@@H](O)C4)C(=O)Nc4ccc(F)c(Cl)c4)C[C@H]2C3)c1
- Ki [9]: 0.0059 µM
- Efficacy [5]: 93.6%
- Efficacy [6]: 85%
- inhibition [7]: 50%
- Efficacy [8]: 94.9%
- inhibition [12]: 13%
- Ki [3]: > 3 µM

Structure (SMILES): Cc1cc(N(C)CCN(C)C)nc2ccc(NC(=O)/C=C/c3ccc(OC(F)(F)F)cc3)cc12
- Reduction [13]: >30%

Structure (SMILES): N#Cc1cccc([C@@]23CC[C@@H](N(CCN4CC[C@@H](O)C4)C(=O)Nc4ccc(F)c(Cl)c4)C[C@@H]2C3)c1
- Ki [9]: 0.0078 µM
- Efficacy [5]: 99%
- Efficacy [6]: 80%
- inhibition [7]: 62%
- Efficacy [8]: 98.6%
- inhibition [12]: 8%
- Ki [3]: > 3 µM

- Ki [3]: > 3 µM
Structure (SMILES): N#Cc1cccc([C@@]23CC[C@@H](N(CCN4CC[C@@H](O)C4)C(=O)Nc4ccc(F)c(Cl)c4)CC2C3)c1 (some centres not stated)

- Ki [9]: 0.003 µM
- AUC [14]: 2140 ng·h/mL
- half-life [15]: 4 h
- Vd(ss) [16]: 5.6 L/kg
- Kb [4]: 0.0019 µM
- Ki [2]: 0.0027 µM
- inhibition [7]: 99%
- inhibition [12]: 58%
- clearance [17]: 21.8 mL/min/kg
- Ki [3]: > 3 µM
- bioavailability [18]: 27%
Structure (SMILES): CN1CCN(CCCCN(C(=O)Nc2ccc(F)c(C(F)(F)F)c2)[C@@H]2CC[C@]3(c4ccc(C#N)cc4)C[C@H]23)CC1
- Efficacy [5]: 76%
- Efficacy [6]: 77.3%
- Efficacy [8]: 78.1%
